According to patent US6630124B1, “Combination therapy with VIP antagonist” (Ramot-University Authority for Applied Research and …, priority 1998, dated 2003):
Where no end group is shown, it is not given here. [ ]: non-standard residue; d: D form. The star is where a group is joined. Stearoyl = CCCCCCCCCCCCCCCCCC(=O)*; Nle = CCCC[C@H](N)C(=O)O

How the values were obtained:
[1] = system: cell lines derived from colon cancer and prostate cancer; experiment: MTS colorimetric proliferation assay, VIP antagonist with chemotherapeutic agents (Example I); type: cell-based; conditions: combination with stearyl-Nle17-neurotensis 6-11 VIP 7-28
Experimental: Assays were performed with cell lines derived from colon cancer and prostate cancer. Proliferation was assessed using the MTS colorimetric assay of mitochondrial function for living cells. The VIP antagonist (stearyl-Nle17-neurotensis 6-11 VIP 7-28) was used.

[2] = system: NCI-H727 non-small cell lung cancer (carcinoid); experiment: MTS cell proliferation assay, SNH and chemotherapy; type: cell-based; conditions: for nature of the combined effect with SNH: combination with SNH; for reduction of the IC50 of the chemotherapeutic agent by SNH: 5 μM SNH, NCI-H727
Experimental: NCI-H727 and LNCaP were grown in RPMI 1640 medium supplemented with 10% heat inactivated FCS, L-glutamine and antibiotics. HT-29 and CT-26 were grown in DMEM medium supplemented with 10% heat-inactivated FCS (fetal calf serum), L-glutamine and antibiotics. The cells were cultured in 5% CO2/95% air at […] and used during their exponential growth phase. Routinely, the cells which are adherent, were split when a subconfluent monolayer was formed. In different experiments, various concentration of FCS were used. For growth inhibition experiments, subconfluent adherent cells were washed with PBS and treated with trypsin/versene. The cells were pelleted and resuspended in medium to a final concentration of 75,000 cells/mL for NCI-H727. 50,000 cells/mL for LNCaP and HT-29 and 25000 cells/mL for CT-26. These different concentrations were used in order to avoid confluence in the wells at the end of the experiment and correspond to the different doubling times of the cell lines. On day 0, cells suspensions […] were dispensed using a multi-channel pipet into the individual wells of a 96-well tissue culture plate (Nuncion, Nunc Brand Products). […] Cells were incubated for 24 hours in a humidified atmosphere of 95% air/5% CO2 at 37° C. before treatment. On day 1, the cells were treated with different drugs and schedules and maintained under the same conditions. On day 4, viable cell number was determined by a modified MTT assay i.e., MTS non-radioactive cell proliferation assay (Promega). […] Results were finally expressed as percentage of the control, which was obtained from the samples with no drug treatment. Dose-response curves were plotted using a Sigma-Plot software and statistically analyzed using Student test. To determine the effect of the lipophilic VIP antagonist SNH on cell proliferation, cells plated in 96-well microplates for 24 hours as described, were treated with various concentrations of SNH. The peptide was diluted in PBS and […] of the peptide solution was added to each well for a final concentration of the peptide between 10^−510^−9 M. The solvent was added to the control wells. […] A dose-response curve was obtained at concentrations ranging from 2 μM-10 μM (see, FIG. 2). […] The effects of an 8 hours treatment were slightly less, showing that most of the effect is in the initial hours of exposure and much more dose than time dependent. […] For the experiments with the combinations of VIP antagonists and chemotherapeutic agents, on day 0, the cells were plated for 24 hours in medium supplemented with 5% FCS. On day 1, the peptide was added to the wells followed 1 hour later by the chemotherapeutic agents. […] The chemotherapeutic drugs were tested over 7 concentrations, covering as much as possible of the dose response curve of each individual drug. 24 hours later, the medium was exchanged and the cells incubated under the same conditions for another 48 hours. On day 4 the number of viable cells was determined by MTS assay.

MDA-MB231 xenografts = experiment: MDA-MB231 breast cancer xenografts in nude mice; type: in vivo, Balb/c nude mice; conditions: after 4 weeks; VIPhyb 10 μg/day s.c., Taxol 1.5 mg i.p. once; PBS control 1121 mm^3
Experimental: To test the proliferative aspects of VIPhybrid analogs in vivo, nude mice bearing breast cancer xenografts were utilized. Female athymic Balb/c nude mice, 4-5 weeks old, were housed in a pathogen-free temperature controlled isolation room and the diet consisted of autoclaved rodent chow and autoclaved water given ad libitum. MDA-MB231 cells (1×10^7) were injected into the right flank of each mouse subcutaneously. […] PBS (100 μl) or VIPhyb analogs (10 μg/day) were injected subcutaneously adjacent to the tumor. Taxol was injected once (1.5 mg i.p.) after 2 weeks. The tumor volume (height×width×depth) was determined twice weekly by calipers and recorded.

MCF-7 cells = experiment: MTT colorimetric assay, breast cancer cells (Example 6); type: cell-based; conditions: for Absorbance at 570 nM: MCF-7, MTT, 5 days
Experimental: The ability of VIP receptor antagonists to alter the growth of breast cancer cells was investigated in vitro using the MTT colorimetric. The semiautomated MTT assay measures reduction of a tetrazolium compound by tumor cells to formazan. The optical density at 570 nm was determined for 8 wells at each inhibitor concentration. Seeding densities were 5×10^4 cells/well and cells were grown in 96 well plates for 5 days.

[3] = system: VIP receptor (glioblastoma cells); experiment: cAMP in glioblastoma cells, basal and VIP-stimulated; type: cell-based; conditions: 10 nM VIP
Source text: The effects of VIP receptor antagonists on glioblastoma cell lines were investigated.

[4] = molecular target: T1, VIP receptor on U-87 cells (UniProt P32241 31-457, limits assumed); experiment: competition with 125I-VIP for binding to U-87 cells
T1 construct: whole, on cells; also called VIP1 receptor; VPAC1 receptor
T1 sequence (looked up): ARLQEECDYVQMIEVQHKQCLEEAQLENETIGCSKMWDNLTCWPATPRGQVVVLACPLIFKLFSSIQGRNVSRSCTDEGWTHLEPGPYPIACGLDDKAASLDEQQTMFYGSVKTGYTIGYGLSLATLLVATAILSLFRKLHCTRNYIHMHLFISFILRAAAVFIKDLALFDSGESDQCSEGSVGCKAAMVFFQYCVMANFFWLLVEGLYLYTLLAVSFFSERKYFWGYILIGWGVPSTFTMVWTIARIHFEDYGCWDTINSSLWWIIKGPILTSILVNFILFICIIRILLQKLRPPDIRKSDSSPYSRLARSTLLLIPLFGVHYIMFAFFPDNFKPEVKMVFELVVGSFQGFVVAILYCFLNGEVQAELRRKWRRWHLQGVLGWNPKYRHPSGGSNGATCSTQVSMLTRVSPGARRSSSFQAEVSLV

Cl.Nc1ccn([C@@H]2O[C@H](CO)[C@@H](O)C2(F)F)c(=O)n1 [gemcitabine, 2′-deoxy-2′,2′-difluorocytidine hydrochloride]
enhancement of the antiproliferative activity of the chemotherapeutic agent by the lipophilic VIP antagonist [1]: enhance the antiproliferative activity | nature of the combined effect with SNH [2]: only additive

KPRRPYTDNYTRLRKQMAVKKYLNSILN [VIPhyb, earlier hybrid VIP antagonist: neurotensin 6-11 joined to VIP 7-28]
tumor volume (height×width×depth) (MDA-MB231 xenografts): 508 mm^3 | Absorbance at 570 nM (MCF-7 cells; 1 μM): .417 ± .064 | Absorbance at 570 nM (MCF-7 cells; 3 μM): .353 ± .048 | Absorbance at 570 nM (MCF-7 cells; 10 μM): .317 ± .030 | inhibition of MCF-7 proliferation (MCF-7 cells; 10 μM, MTT assay): significantly inhibited | order of peptide potency, inhibition of VIP-stimulated cAMP [3]: (SN)VIPhybrid>VIP hybrid >PTC4495

CCC1=C[C@@H]2CN(C1)Cc1c([nH]c3ccccc13)[C@@](C(=O)OC)(c1cc3c(cc1OC)N(C)[C@H]1[C@@](O)(C(=O)OC)[C@H](OC(C)=O)[C@]4(CC)C=CCN5CC[C@]31[C@@H]54)C2 [navelbine]
effect of the combination with the VIP antagonist [1]: synergistic | enhancement of the antiproliferative activity of the chemotherapeutic agent by the lipophilic VIP antagonist [1]: enhance the antiproliferative activity | reduction of the IC50 of the chemotherapeutic agent by SNH [2]: at least 2 fold | nature of the combined effect with SNH [2]: synergistic

N.N.[Cl][Pt][Cl] [cisplatin, cis-dichlorodiammineplatinum II]
effect of the combination with the VIP antagonist [1]: synergistic | reduction of the IC50 of the chemotherapeutic agent by SNH [2]: 4 fold | nature of the combined effect with SNH [2]: synergistic

COc1cccc2c1C(=O)c1c(O)c3c(c(O)c1C2=O)C[C@@](O)(C(=O)CO)C[C@@H]3O[C@H]1C[C@H](N)[C@H](O)[C@H](C)O1 [doxorubicine]
effect of the combination with the VIP antagonist [1]: synergistic | enhancement of the antiproliferative activity of the chemotherapeutic agent by the lipophilic VIP antagonist [1]: enhance the antiproliferative activity | nature of the combined effect with SNH [2]: less pronounced

B1: (N-Stearyl-Norleucine17) VIPhybrid (peptide)
peptide: Stearoyl-KPRRPYTDNYTRLRKQ[Nle]AVKKYLNSILN-NH2
SMILES: CCCCCCCCCCCCCCCCCC(=O)N[C@@H](CCCCN)C(=O)N1CCC[C@H]1C(=O)N[C@@H](CCCNC(=N)N)C(=O)N[C@@H](CCCNC(=N)N)C(=O)N1CCC[C@H]1C(=O)N[C@@H](Cc1ccc(O)cc1)C(=O)N[C@H](C(=O)N[C@@H](CC(=O)O)C(=O)N[C@@H](CC(N)=O)C(=O)N[C@@H](Cc1ccc(O)cc1)C(=O)N[C@H](C(=O)N[C@@H](CCCNC(=N)N)C(=O)N[C@@H](CC(C)C)C(=O)N[C@@H](CCCNC(=N)N)C(=O)N[C@@H](CCCCN)C(=O)N[C@@H](CCC(N)=O)C(=O)N[C@@H](CCCC)C(=O)N[C@@H](C)C(=O)N[C@H](C(=O)N[C@@H](CCCCN)C(=O)N[C@@H](CCCCN)C(=O)N[C@@H](Cc1ccc(O)cc1)C(=O)N[C@@H](CC(C)C)C(=O)N[C@@H](CC(N)=O)C(=O)N[C@@H](CO)C(=O)N[C@H](C(=O)N[C@@H](CC(C)C)C(=O)N[C@@H](CC(N)=O)C(N)=O)[C@@H](C)CC)C(C)C)[C@@H](C)O)[C@@H](C)O
notes: Synthetic lipophilic VIP antagonist; also called (SN)VIPhybrid; SNVIPhybrid
IC50 [4]: 500 nM

B2: Neurotensis 6-11 VIP7-28 (VIPhybrid) (peptide)
peptide: KPRRPYTDNYTRLRKQMAVKKYLNSILN
modifications: ends and bridges not checked
IC50 [4]: 70 nM
